Measured values reported in patent US20240376084A1, “INHIBITORS OF ALPHA-HEMOLYSIN OF STAPHYLOCOCCUS AUREUS” (Helmholtz-Zentrum Fur Infektionsforschung GmbH, priority 2021, published 2024).

Molecular target: hemolysin alpha from Staphylococcus aureus (Staphylococcus aureus, UniProt P09616)
Assay: cell-based

Sequence of hemolysin alpha from Staphylococcus aureus (P09616 27-319 limits assumed): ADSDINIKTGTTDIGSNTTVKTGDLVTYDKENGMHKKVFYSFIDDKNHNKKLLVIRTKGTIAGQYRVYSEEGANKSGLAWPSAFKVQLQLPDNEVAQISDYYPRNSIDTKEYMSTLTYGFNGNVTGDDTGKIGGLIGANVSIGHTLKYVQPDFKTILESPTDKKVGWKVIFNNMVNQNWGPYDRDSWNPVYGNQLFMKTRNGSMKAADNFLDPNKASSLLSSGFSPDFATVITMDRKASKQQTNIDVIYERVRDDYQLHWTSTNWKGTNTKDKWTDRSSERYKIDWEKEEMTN

Compound	IC50 [nM]	EC50 [nM]
Cc1ccc(NS(=O)(=O)c2cc3[nH]c(=O)c(=O)[nH]c3cc2C)cc1 [Compound 179, 7-methyl-2,3-dioxo-N-(p-tolyl)-1,2,3,4-tetrahydroquinoxaline-6-sulfonamide]	100 to 1000	–
Cc1cc2[nH]c(=O)c(=O)[nH]c2cc1S(=O)(=O)Nc1nc2ccccc2s1 [Compound 238, N-(benzo[d]thiazol-2-yl)-7-methyl-2,3-dioxo-1,2,3,4-tetrahydroquinoxaline-6-sulfonamide]	–	100 to 1000
Cc1cc2[nH]c(=O)c(=O)[nH]c2cc1S(=O)(=O)Nc1ccc(-c2ccccc2)nc1 [Compound 224, 7-methyl-2,3-dioxo-N-(6-phenylpyridin-3-yl)-1,2,3,4-tetrahydroquinoxaline-6-sulfonamide]	–	100 to 1000
Cc1cc2[nH]c(=O)c(=O)[nH]c2cc1S(=O)(=O)Nc1cnc(Br)c(Cl)c1 [Compound 236, N-(6-bromo-5-chloropyridin-3-yl)-7-methyl-2,3-dioxo-1,2,3,4-tetrahydroquinoxaline-6-sulfonamide]	–	1000 to 3500
Cc1cc2[nH]c(=O)c(=O)[nH]c2cc1S(=O)(=O)Nc1cc(Cl)c(Br)cn1 [Compound 226, N-(5-bromo-4-chloropyridin-2-yl)-7-methyl-2,3-dioxo-1,2,3,4-tetrahydroquinoxaline-6-sulfonamide]	–	1000 to 3500
Cc1cc(NS(=O)(=O)c2cc3[nH]c(=O)c(=O)[nH]c3cc2F)cc(C)c1Br [Compound 162, N-(4-bromo-3,5-dimethylphenyl)-7-fluoro-2,3-dioxo-1,2,3,4-tetrahydroquinoxaline-6-sulfonamide]	100 to 1000	–
Cc1cc2[nH]c(=O)c(=O)[nH]c2cc1S(=O)(=O)Nc1ccc2c(c1)OCCO2 [Compound 242, N-(2,3-dihydrobenzo[b][1,4]dioxin-6-yl)-7-methyl-2,3-dioxo-1,2,3,4-tetrahydroquinoxaline-6-sulfonamide]	–	100 to 1000
Cc1cc2[nH]c(=O)c(=O)[nH]c2cc1S(=O)(=O)Nc1ccc2c(ccn2C)c1 [Compound 228, 7-methyl-N-(1-methyl-1H-indol-5-yl)-2,3-dioxo-1,2,3,4-tetrahydroquinoxaline-6-sulfonamide]	–	1000 to 3500
Cc1cc(NS(=O)(=O)c2cc3[nH]c(=O)c(=O)[nH]c3cc2Cl)cc(C)c1-c1ccoc1 [Compound 156, 7-chloro-N-(4-(furan-3-yl)-3,5-dimethylphenyl)-2,3-dioxo-1,2,3,4-tetrahydroquinoxaline-6-sulfonamide]	100 to 1000	–
CC(C)(C)c1ccc(NS(=O)(=O)c2cc3[nH]c(=O)c(=O)[nH]c3cc2Br)cc1 [Compound 195, 7-bromo-N-(4-(tert-butyl)phenyl)-2,3-dioxo-1,2,3,4-tetrahydroquinoxaline-6-sulfonamide]	–	1000 to 3500
Cc1cc2[nH]c(=O)c(=O)[nH]c2cc1S(=O)(=O)Nc1cnc(-c2ccc(F)cc2)c(Cl)c1 [Compound 215, N-(5-chloro-6-(4-fluorophenyl)pyridin-3-yl)-7-methyl-2,3-dioxo-1,2,3,4-tetrahydroquinoxaline-6-sulfonamide]	–	30 to 100
O=c1[nH]c2cc(F)c(S(=O)(=O)Nc3ccc(Br)c(Cl)c3)cc2[nH]c1=O [Compound 148, N-(4-bromo-3-chlorophenyl)-7-fluoro-2,3-dioxo-1,2,3,4-tetrahydroquinoxaline-6-sulfonamide]	100 to 1000	–
Cc1cc2[nH]c(=O)c(=O)[nH]c2cc1S(=O)(=O)Nc1ccc(N2CCCC2)c(Cl)c1 [Compound 196, N-(3-chloro-4-(pyrrolidin-1-yl)phenyl)-7-methyl-2,3-dioxo-1,2,3,4-tetrahydroquinoxaline-6-sulfonamide]	–	30 to 100
O=c1[nH]c2cc([N+](=O)[O-])c(S(=O)(=O)Nc3ccc(OC(F)(F)F)cc3)cc2[nH]c1=O [Compound 191, 7-nitro-2,3-dioxo-N-(4-(trifluoromethoxy)phenyl)-1,2,3,4-tetrahydroquinoxaline-6-sulfonamide]	–	100 to 1000
